EC50 data for 23 molecules are collected here from patent US11230526B1, “Cylcoalkenyl derivatives useful as agonists of the GPR120 and/or GPR40 receptors” (Janssen Pharmaceutica NV, priority 2018, dated 2022).

Common to all, as to assay type: cell-based
Experiment [1] concerns the target T1, Human GPR120 short form (Homo sapiens, UniProt Q5NUL3).
T1 construct: expressed in transfected cells
T1 sequence (Q5NUL3 1-361): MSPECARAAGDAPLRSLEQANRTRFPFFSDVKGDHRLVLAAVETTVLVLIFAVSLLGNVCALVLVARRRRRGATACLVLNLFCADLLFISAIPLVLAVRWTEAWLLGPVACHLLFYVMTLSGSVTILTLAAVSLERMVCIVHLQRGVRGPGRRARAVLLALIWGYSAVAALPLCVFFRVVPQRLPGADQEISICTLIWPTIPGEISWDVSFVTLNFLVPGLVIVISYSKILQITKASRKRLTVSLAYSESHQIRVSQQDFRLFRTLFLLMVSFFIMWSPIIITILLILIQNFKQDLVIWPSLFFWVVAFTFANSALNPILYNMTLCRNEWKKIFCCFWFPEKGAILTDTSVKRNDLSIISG
The experiment is described as follows: Human GPR120 calcium flux assay, Procedure Calcium B (4200 cells/well). In a few lines:
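HEK293 cells stably expressing human GPR120 (NM_001195755.1), 4200 cells/well, starved 1 h and loaded with Fluo-4 NW plus probenecid. Ligand-evoked calcium flux read on FLIPR for 300 s after a 10 s baseline. RFU = Fmax−Fmin; EC50 from four-parameter concentration-response fit.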

Another experiment concerns the target T2, human GPR40 (Homo sapiens, UniProt O14842).
T2 construct: expressed in transfected cells
The experiment can be described thus: GPR40 calcium flux assay, human GPR40. The settings on record: HEK293 cells stably expressing GPR40; table does not say human or rat. A digest of the protocol: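 Cells preincubated 1 h at 37° C. in HBSS, 20 mM HEPES, 0.1% BSA, then Fluo 8 calcium dye 30 min at 37° C. and 15 min at room temperature.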
(In general: Calcium assays in cells follow changes in intracellular calcium, usually with a dye or a luminescent sensor.)

Experiment [2] addresses T1, Human GPR120 short form. The experiment can be described thus: Human GPR120 calcium flux assay, Procedure Calcium A (2500 cells/well). From the text:
Human GPR120 in Calcium Flux Assay
This in vitro assay serves to assess test compound agonist activity against the short splice variant (SVS with Accession number NM_001195755.1 confirmed by sequencing data) of the GPR120 receptor. The Human Short splice variant #2 (NM_001195755.1) is missing an in-frame coding exon compared to variant 1 (the Human Long splice variant NM_181745.3), resulting in a shorter isoform (GPR120-S) lacking a 16 aa protein segment compared to isoform GPR120-L. The assay platform utilizes HEK-293 cells stably transfected to express the Human GPR120 short form. These cells are first loaded with the Ca^+2 sensitive dye, Fluo-4 NW. Upon stimulation, intracellular released Ca^+2 can bind to the dye and alter its fluorescence intensity. This increase in fluorescence signal, and thus the flux in intracellular [Ca^2+], is detected and quantitated by fluorescence imaging using a FLIPR reader. The effect of the agonist is measured as a function of concentration and used to calculate an EC50 based upon a response curve.
In this procedure 2500 cells/well were employed.
A Human GPR120 clone (Genbank accession number NM_001195755.1) was placed into the pcDNA3.1 mammalian expression vector carrying the neomycin resistance gene. A stable mammalian cell was generated by placing the above clone into a HEK293 background. Clonal cells responding to long chain fatty acids had expression levels of GPR120 confirmed by RT-qPCR. Human HEK-GPR120 cells were cultured in Dulbecco's Modified Eagle's Medium (DMEM)/F12 medium supplemented with 10% fetal bovine serum (FBS), 1% L-Glutamine and 1% penicillin/streptomycin and 0.5 mg/ml G-418. Cells were split 2 times a week to keep the cells in the log-phase growth.
In preparation for the assay, HEK cells stably transfected with Human GPR120 (2.5K cells per well in 25 uL growth medium) were seeded into 384-well plates and then incubated overnight (37° C., 5% CO2). The next day, the media was changed to 20 μL assay buffer and the cell starved for 1 h at 37° C. The dye loading solution (2× dye) was prepared using 10 mL assay buffer, 100 μL of 250 mM probenecid, 1 bottle of Component A, and 20 μl of dye in DMSO. Twenty μL of the 2× dye loading buffer was then added to each well. The plates were incubated at 37° C. for 30 min, then at room temperature for an additional 15 minutes, before performing the assay on FLIPR.
The assay was performed on a FLIPR plate reader using the following parameters. Baseline was read for 10 seconds at 1 sec intervals. The program was set to transfer 10 μL of ligand from compound plate to cell plate after baseline reading. Aspiration was executed at: 10 μL/sec speed, 4.6 μL height, Dispensing was executed at: 30 μL/sec speed, 45 μL height. After compound addition, each well was read for 300 sec, with measurements collected at 1 sec intervals.
The kinetic data from the FLIPR was based upon a 5 minute window for data collection. The fluorescence of each sample well was used for individual calculations of a normalized RFU value, which was defined as maximum response minus the minimum response. The normalized fluorescence reading (RFU) was calculated as follows: RFU=Fmax−Fmin
The Fitting Equation was: Y=Bottom+(Top-Bottom)/(1+10^((Log EC50−X)*HillSlope)), where X is the log of the concentration and Y is the response.

Molecules are shown by their SMILES.

T2 sequence (O14842 whole entry): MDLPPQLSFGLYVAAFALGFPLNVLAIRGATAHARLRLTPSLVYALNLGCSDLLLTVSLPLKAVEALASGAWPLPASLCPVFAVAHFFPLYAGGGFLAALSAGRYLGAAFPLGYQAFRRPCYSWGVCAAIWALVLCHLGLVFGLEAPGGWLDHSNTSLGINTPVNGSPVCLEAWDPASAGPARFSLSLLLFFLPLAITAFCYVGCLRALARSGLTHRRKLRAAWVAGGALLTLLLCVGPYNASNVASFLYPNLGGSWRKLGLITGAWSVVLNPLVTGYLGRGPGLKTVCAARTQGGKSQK

`Cc1c(CCC(=O)O)ccc(OCC2=C(c3ccc(Cl)c(F)c3)CCC2)c1C` [Compound 157, 3-(4-((2-(4-chloro-3-fluorophenyl)cyclopent-1-en-1-yl)methoxy)-2,3-dimethylphenyl)Propanoic Acid]: the EC50 (usually the concentration that produces a half-maximal response) at Human GPR120 short form [1] was 0.067 µM; at human GPR40, above 5 µM; on Human GPR120 short form [2] it was 0.097 µM.
For `O=C(O)CCc1ccc(OCC2=C(c3ccccc3)CCC2)cc1` [Compound 19, 3-(4-((2-phenylcyclopent-1-en-1-yl)methoxy)phenyl)Propanoic Acid], the EC50 was 0.603 µM at Human GPR120 short form [1], above 5 µM at human GPR40 and 1.93 µM at Human GPR120 short form [2].
With `CCOc1ccc(C2=C(COc3ccc(CCC(=O)O)c(C)c3C)CCC2)cc1` [Compound 151, 3-[4-[[2-(4-ethoxyphenyl)cyclopenten-1-yl]methoxy]-2,3-dimethyl-phenyl]Propanoic Acid], the EC50 at human GPR40 and on Human GPR120 short form [2] was above 5 µM each time.
For `Cc1c(CCC(=O)O)ccc(OCC2=C(c3ccc(I)cc3)CCCC2)c1C` [Compound 476, 3-[4-[[2-(4-iodophenyl)cyclohexen-1-yl]methoxy]-2,3-dimethyl-phenyl]Propanoic Acid], the EC50 at Human GPR120 short form [1] is 0.475 µM; at human GPR40, above 5 µM; at Human GPR120 short form [2], 1.33 µM.
On to `Cc1c(CCC(=O)O)ccc(OCC2=C(c3ccc([S+](C)[O-])cc3)CCC2)c1C` (stereo not shown) [Compound 120, 3-[2,3-dimethyl-4-[[2-(4-methylsulfinylphenyl)cyclopenten-1-yl]methoxy]phenyl]Propanoic Acid], for which the EC50 at Human GPR120 short form [2] is above 5 µM.
With `Cc1c(CCC(=O)O)ccc(OCC2=C(c3ccccn3)CCCC2)c1C` [Compound 490, 3-[2,3-dimethyl-4-[[2-(2-pyridyl)cyclohexen-1-yl]methoxy]phenyl]Propanoic Acid], the EC50 at Human GPR120 short form [1] was 0.743 µM; on human GPR40, above 5 µM; at Human GPR120 short form [2], 2.19 µM.
With `O=C(O)CCc1ccc(OCC2=C(c3ccc(Cl)cc3)CCCC2)cc1F` [Compound 504, 3-[4-[[2-(4-chlorophenyl)cyclohexen-1-yl]methoxy]-2-fluoro-phenyl]Propanoic Acid], the figures for the EC50 on Human GPR120 short form [1], on human GPR40 and on Human GPR120 short form [2] were 0.33 µM, 4.02 µM and 2.82 µM, respectively.
As to `Cc1c(CCC(=O)O)ccc(OCC2=C(c3cccc(N(C)C)c3)CCC2)c1C` [Compound 114, 3-[4-[[2-[3-(dimethylamino)phenyl]cyclopenten-1-yl]methoxy]-2,3-dimethyl-phenyl]Propanoic Acid], the EC50 on human GPR40 and on Human GPR120 short form [2] was above 5 µM in each case.
On to `CCCc1ccc(C2=C(COc3ccc(CCC(=O)O)c(C)c3C)CCC2)cc1` [Compound 140, 3-[2,3-dimethyl-4-[[2-(4-propylphenyl)cyclopenten-1-yl]methoxy]phenyl]Propanoic Acid], for which the EC50 at human GPR40 and on Human GPR120 short form [2] was above 5 µM each time.
Consider `COc1cc(C2=C(COc3ccc(CCC(=O)O)c(C)c3C)CCC2)ccc1C` [Compound 113, 3-(4-((2-(3-methoxy-4-methylphenyl)cyclopent-1-en-1-yl)methoxy)-2,3-dimethylphenyl)Propanoic Acid], for which the EC50 on human GPR40 and at Human GPR120 short form [2] was above 5 µM throughout.
Consider `Cc1c(CCC(=O)O)ccc(OCC2=C(c3ccc(S(C)(=O)=O)cc3)CCCC2)c1C` [Compound 515, 3-[2,3-dimethyl-4-[[2-(4-methylsulfonylphenyl)cyclohexen-1-yl]methoxy]phenyl]Propanoic Acid], for which the EC50 on human GPR40 and at Human GPR120 short form [2] was above 5 µM throughout.
For the molecule `O=C(O)CCc1ccc(OCC2=C(c3ccc(Cl)cc3)CCC2O)c(F)c1F` (stereo not shown) [Compound 45], the EC50 is above 5 µM at human GPR40 and above 20 µM at Human GPR120 short form [2].
Turning to `Cc1c(CCC(=O)O)ccc(OCC2=C(c3ccc(S(C)(=O)=O)cc3)CCC2)c1C` [Compound 74, 3-[2,3-dimethyl-4-[[2-(4-methylsulfonylphenyl)cyclopenten-1-yl]methoxy]phenyl]Propanoic Acid], the EC50 at human GPR40 is above 10 µM; at Human GPR120 short form [2] it was above 20 µM.
Turning to `Cc1c(CCC(=O)O)ccc(OCC2=C(c3ccncc3)CCC2)c1C` [Compound 139, 3-[2,3-dimethyl-4-[[2-(4-pyridyl)cyclopenten-1-yl]methoxy]phenyl]Propanoic Acid], the EC50 worked out at 2.47 µM on Human GPR120 short form [1] and 2.45 µM at Human GPR120 short form [2].
As for `CC(=O)Nc1ccc(C2=C(COc3ccc(CCC(=O)O)c(C)c3C)CCCC2)cc1` [Compound 495, 3-[4-[[2-(4-acetamidophenyl)cyclohexen-1-yl]methoxy]-2,3-dimethyl-phenyl]Propanoic Acid], the EC50 at human GPR40 and on Human GPR120 short form [2] was above 5 µM in each case.
Consider `Cc1c(CCC(=O)O)ccc(OCC2=C(c3ccc(OC(F)(F)F)cc3)CCCC2)c1C` [Compound 466, 3-[2,3-dimethyl-4-[[2-[4-(trifluoromethoxy)phenyl]cyclohexen-1-yl]methoxy]phenyl]Propanoic Acid], for which the EC50 on Human GPR120 short form [1] was 1.45 µM; at Human GPR120 short form [2], 4.45 µM.
Regarding `COc1ccc(C2=C(COc3ccc(CCC(=O)O)c(C)c3C)CCC2)cc1` [Compound 21, 3-(4-((2-(4-methoxyphenyl)cyclopent-1-en-1-yl)methoxy)-2,3-dimethylphenyl)Propanoic Acid], the results for the EC50 at human GPR40 and at Human GPR120 short form [2] were above 5 µM and above 20 µM, respectively.
In the case of `CCOc1ccc(C2=C(COc3ccc(CCC(=O)O)c(C)c3C)CCCC2)cc1` [Compound 461, 3-[4-[[2-(4-ethoxyphenyl)cyclohexen-1-yl]methoxy]-2,3-dimethyl-phenyl]Propanoic Acid], the concentration for a half-maximal effect (EC50) at Human GPR120 short form [1] was 1.36 µM; at Human GPR120 short form [2] it was 2.26 µM.
`CC(=O)Nc1ccc(C2=C(COc3ccc(CCC(=O)O)c(C)c3C)CCC2)cc1` [Compound 51, 3-[4-[[2-(4-acetamidophenyl)cyclopenten-1-yl]methoxy]-2,3-dimethyl-phenyl]Propanoic Acid]: the EC50 on Human GPR120 short form [2] was above 20 µM.
Regarding `O=C(O)CCc1ccc(OCC2=C(c3ccc(Cl)cc3)CCCC2)cc1` [Compound 517, 3-[4-[[2-(4-chlorophenyl)cyclohexen-1-yl]methoxy]phenyl]Propanoic Acid], the EC50 on human GPR40 and at Human GPR120 short form [2] was above 5 µM throughout.
Consider `Cc1c(CCC(=O)O)ccc(OCC2=C(c3ccsc3)CCC2)c1C` [Compound 22, 3-(2,3-dimethyl-4-((2-(thiophen-3-yl)cyclopent-1-en-1-yl)methoxy)phenyl)Propanoic Acid], for which the figures for the EC50 on human GPR40 and at Human GPR120 short form [2] were above 5 µM and above 20 µM, respectively.
On to `Cc1c(CCC(=O)O)ccc(OCC2=C(c3ccccc3Cl)CCCC2)c1C` [Compound 464, 3-[4-[[2-(2-chlorophenyl)cyclohexen-1-yl]methoxy]-2,3-dimethyl-phenyl]Propanoic Acid], for which the figures for the EC50 at Human GPR120 short form [1] and at Human GPR120 short form [2] were 1.25 µM and 1.34 µM, respectively.
Regarding `Cc1c(CCC(=O)O)ccc(OCC2=C(c3ccc([S+](C)[O-])cc3)CCCC2)c1C` (stereo not shown) [Compound 507, 3-[2,3-dimethyl-4-[[2-(4-methylsulfinylphenyl)cyclohexen-1-yl]methoxy]phenyl]Propanoic Acid], the values for the EC50 on human GPR40 and on Human GPR120 short form [2] were above 10 µM and above 5 µM, respectively.
